Values after ≈ are worked out from the molar mass of the structure shown. Like-named read-outs stand apart in the source and are kept apart here.
What was measured:
[1] = system: E. coli KA797 cells carrying BlaC position 105 library; format: cell-based, Escherichia coli; settings: ceftriaxone; for Fi CEF AVG: average of replicates; for Fi CEF 1: replicate 1
[2] = system: E. coli KA797 cells carrying pUK21 with BlaC WT (Tat); assay: microbe, parasite or virus in culture; format: cell-based; settings: Escherichia coli, antibiotic alone
[3] = system: E. coli KA797 cells carrying pUK21 with CTX-M-14 WT (Tat); assay: microbe, parasite or virus in culture; format: cell-based; settings: Escherichia coli, antibiotic alone
[4] = system: E. coli KA797 cells carrying TEM-1 position 105 library; format: cell-based; settings: for Fi CEF AVG: average of replicates
[5] = system: E. coli KA797 cells carrying pUK21 vector without the β-lactamase gene; assay: microbe, parasite or virus in culture; format: cell-based; settings: Escherichia coli
[6] = system: E. coli KA797 cells carrying CTX-M-14 position 105 library; format: cell-based
[7] = system: E. coli KA797 cells carrying pUK21 with NmcA (pelB/Sec); assay: microbe, parasite or virus in culture; format: cell-based; settings: Escherichia coli, antibiotic alone
[8] = system: E. coli KA797 cells carrying NmcA position 105 library; format: cell-based

CO/N=C(\C(=O)N[C@@H]1C(=O)N2C(C(=O)O)=C(CSc3nc(=O)c(=O)[nH]n3C)CS[C@H]12)c1csc(N)n1 [ceftriaxone]
Fi CEF AVG ([1]; AA 105 Arg): 0.035
Fi CEF 1 ([1]; AA 105 Arg): 0.040
Fi CEF 2 ([1]; AA 105 Arg, replicate 2): 0.029
Fi CEF AVG ([1]; AA 105 Cys): 0.035
Fi CEF 1 ([1]; AA 105 Cys): 0.020
Fi CEF 2 ([1]; AA 105 Cys, replicate 2): 0.049
Fi CEF 2 ([1]; AA 105 Gly, replicate 2): -0.00224
Fi CEF AVG ([1]; AA 105 His): 0.032
Fi CEF 1 ([1]; AA 105 His): 0.007
Fi CEF 2 ([1]; AA 105 His, replicate 2): 0.057
Fi CEF AVG ([1]; AA 105 Ile (WT)): 0.000
Fi CEF 1 ([1]; AA 105 Ile (WT)): 0.000
Fi CEF 2 ([1]; AA 105 Ile (WT), replicate 2): 0.000
Fi CEF AVG ([1]; AA 105 Leu): 0.017
Fi CEF 1 ([1]; AA 105 Leu): 0.023
Fi CEF 2 ([1]; AA 105 Leu, replicate 2): 0.011
Fi CEF AVG ([1]; AA 105 Lys): -0.009
Fi CEF 2 ([1]; AA 105 Lys, replicate 2): -0.009
Fi CEF AVG ([1]; AA 105 Met): 0.036
Fi CEF 1 ([1]; AA 105 Met): 0.064
Fi CEF 2 ([1]; AA 105 Met, replicate 2): 0.008
Fi CEF AVG ([1]; AA 105 Phe): 0.008
Fi CEF 1 ([1]; AA 105 Phe): -0.000834
Fi CEF 2 ([1]; AA 105 Phe, replicate 2): 0.017
Fi CEF AVG ([1]; AA 105 Ser): -0.011
Fi CEF 1 ([1]; AA 105 Ser): -0.00266
Fi CEF AVG ([1]; AA 105 Trp): 0.038
Fi CEF 1 ([1]; AA 105 Trp): 0.042
Fi CEF 2 ([1]; AA 105 Trp, replicate 2): 0.034
Fi CEF 1 ([1]; AA 105 Val): 0.004
WT abs Fi 2 ([1]; WT (Ile 105) absolute fitness, replicate 2): -0.008
MIC [2]: 0.2 µg/mL (≈ 0.361 µM)
MIC [3]: 1600 µg/mL (≈ 2890 µM)
Fi CEF 2 ([4]; AA 105 Ala, replicate 2): -0.112
Fi CEF 3 ([4]; AA 105 Ala, replicate 3): 0.013
Fi CEF 2 ([4]; AA 105 Asn, replicate 2): -0.107
Fi CEF 3 ([4]; AA 105 Asn, replicate 3): -0.034
Fi CEF 1 ([4]; AA 105 Asp, replicate 1): 0.596
Fi CEF AVG ([4]; AA 105 Cys): 0.087
Fi CEF 1 ([4]; AA 105 Cys, replicate 1): 0.906
Fi CEF AVG ([4]; AA 105 Gln): 0.078
Fi CEF 1 ([4]; AA 105 Gln, replicate 1): 0.356
Fi CEF 2 ([4]; AA 105 Gln, replicate 2): -0.028
Fi CEF 3 ([4]; AA 105 Gln, replicate 3): -0.095
Fi CEF 1 ([4]; AA 105 Glu, replicate 1): 0.340
Fi CEF 2 ([4]; AA 105 Glu, replicate 2): -0.099
Fi CEF AVG ([4]; AA 105 Gly): 0.067
Fi CEF 1 ([4]; AA 105 Gly, replicate 1): 0.338
Fi CEF 2 ([4]; AA 105 Gly, replicate 2): -0.077
Fi CEF 3 ([4]; AA 105 Gly, replicate 3): -0.061
Fi CEF AVG ([4]; AA 105 Leu): 0.072
Fi CEF 1 ([4]; AA 105 Leu, replicate 1): 0.332
Fi CEF 2 ([4]; AA 105 Leu, replicate 2): 0.047
Fi CEF AVG ([4]; AA 105 Lys): 0.057
Fi CEF 3 ([4]; AA 105 Lys, replicate 3): 0.102
Fi CEF AVG ([4]; AA 105 Phe): 0.182
Fi CEF 2 ([4]; AA 105 Phe, replicate 2): 0.022
Fi CEF 3 ([4]; AA 105 Phe, replicate 3): 0.240
Fi CEF AVG ([4]; AA 105 Pro): 0.130
Fi CEF 1 ([4]; AA 105 Pro, replicate 1): 0.375
Fi CEF 2 ([4]; AA 105 Pro, replicate 2): -0.060
Fi CEF 3 ([4]; AA 105 Pro, replicate 3): 0.074
Fi CEF AVG ([4]; AA 105 Ser): 0.105
Fi CEF 3 ([4]; AA 105 Ser, replicate 3): 0.208
Fi CEF AVG ([4]; AA 105 Trp): 0.125
Fi CEF 1 ([4]; AA 105 Trp, replicate 1): 0.969
Fi CEF 2 ([4]; AA 105 Tyr, replicate 2): 0.000
Fi CEF 3 ([4]; AA 105 Tyr, replicate 3): 0.000
WT abs Fi 1 ([4]; absolute fitness of TEM-1 WT, CEF, replicate 1): -0.283
WT abs Fi 2 ([4]; absolute fitness of TEM-1 WT, CEF, replicate 2): 0.276
WT abs Fi 3 ([4]; absolute fitness of TEM-1 WT, CEF, replicate 3): 0.176
MIC [5]: 0.1 µg/mL (≈ 0.18 µM)
Significance of average fitness ([6]; CTX-M-14 AA 105 Ala): -
Significance of average fitness ([6]; CTX-M-14 AA 105 Arg): -
Significance of average fitness ([6]; CTX-M-14 AA 105 Asn): -
Significance of average fitness ([6]; CTX-M-14 AA 105 Asp): -
Significance of average fitness ([6]; CTX-M-14 AA 105 Cys): -
Significance of average fitness ([6]; CTX-M-14 AA 105 Gln): -
Significance of average fitness ([6]; CTX-M-14 AA 105 Glu): -
Significance of average fitness ([6]; CTX-M-14 AA 105 Gly): -
Significance of average fitness ([6]; CTX-M-14 AA 105 His): -
Significance of average fitness ([6]; CTX-M-14 AA 105 Ile): -
Significance of average fitness ([6]; CTX-M-14 AA 105 Leu): -
Significance of average fitness ([6]; CTX-M-14 AA 105 Lys): -
Significance of average fitness ([6]; CTX-M-14 AA 105 Met): -
Significance of average fitness ([6]; CTX-M-14 AA 105 Phe): -
Significance of average fitness ([6]; CTX-M-14 AA 105 Pro): -
Significance of average fitness ([6]; CTX-M-14 AA 105 Ser): -
Significance of average fitness ([6]; CTX-M-14 AA 105 Thr): -
Significance of average fitness ([6]; CTX-M-14 AA 105 Trp): +
Significance of average fitness ([6]; CTX-M-14 AA 105 Val): -
WT abs Fi 1 (absolute fitness of wild type, Replicate 1) ([6]; CTX-M-14 WT (Tyr 105)): 0.241
WT abs Fi 2 (absolute fitness of wild type, Replicate 2) ([6]; CTX-M-14 WT (Tyr 105)): 0.256
MIC [7]: 0.2 µg/mL (≈ 0.361 µM)
Fi AVG (average fitness of replicates) ([8]; NmcA AA 105 Asp): 0.078
Fi AVG (average fitness of replicates) ([8]; NmcA AA 105 Cys): 0.046
Fi AVG (average fitness of replicates) ([8]; NmcA AA 105 Glu): 0.057
Fi AVG (average fitness of replicates) ([8]; NmcA AA 105 Lys): 0.077
Fi AVG (average fitness of replicates) ([8]; NmcA AA 105 Phe): 0.046
Fi AVG (average fitness of replicates) ([8]; NmcA AA 105 Pro): 0.055
Fi AVG (average fitness of replicates) ([8]; NmcA AA 105 Trp): 0.226
Significance of average fitness ([8]; NmcA AA 105 Trp): +
WT abs Fi 1 (absolute fitness) ([8]; NmcA WT, replicate 1): 0.029
WT abs Fi 2 (absolute fitness) ([8]; NmcA WT, replicate 2): -0.00378
WT abs Fi 3 (absolute fitness) ([8]; NmcA WT, replicate 3): -0.101

Source: article PMC12274840 (The Journal of Biological Chemistry, 2025)
